Measured values reported in patent US6355799B1, “Substituted benzene compounds, process for their preparation, and herbicidal and defoliant compositions containing them” (ISK Americas Incorporated, priority 1997, dated 2002).

What was measured:
Format in all cases: in vivo
[1] = tested on: redroot pigweed (Amaranthus retroflexus, AMARE); experiment: Pre-emerge test, greenhouse herbicide activity screening; conditions: for Pre-emerge Herbicidal Activity AMARE (phytotoxicity rating, scale 0-100): rated 14 days after application, 0 = no damage, 100 = complete death; for Pre-emerge Herbicidal Activity AMARE (phytotoxicity rating, scale 0-100) / phytotoxicity rating AMARE: pre-emerge; for phytotoxicity rating AMARE: 14 days after application, rating scale 0-100
Outline: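 Compounds in acetone were track-sprayed at 15-1000 g ai/ha (187 l/ha) on sandy loam pots: pre-emerge one day after seeding, post-emerge at 2-3 leaf stage with 0.25% v/v non-ionic surfactant. Phytotoxicity was rated 14 days later on a 0 (no damage) to 100 (complete death) scale.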

[2] = tested on: common ragweed (Ambrosia artemisizfolia L., AMBEL); experiment: Post-emerge test, greenhouse herbicide activity screening; conditions: 14 days after application; for Post-emerge Herbicidal Activity AMBEL: phytotoxicity rating 0-100 (0 no damage, 100 complete death); for phytotoxicity rating AMBEL: post-emerge, rating scale 0-100
Outline: (§1)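 Rating: 0–100 visual injury, 14 DAA. Application: acetone, 187 l/ha, 15–1000 g ai/ha, flat-fan track sprayer with nozzle 40–45 cm above soil or canopy. Post-emerge runs used 0.25% v/v surfactant on 2–3 leaf plants.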

weed species = experiment: Standard greenhouse herbicide activity screening, overall statements on weeds; conditions: comparison with compound 2 of Japanese Pat. No. Toku Kai Hei 5-25144 (Table XIX)
Excerpt: A standard greenhouse herbicide activity screening system was used to evaluate the herbicidal efficacy and crop safety of these test compounds. Seven broadleaf weed species including redroot pigweed (Amaranthus retroflexus, AMARE, velvetleaf (Abutilon theophrasti, ABUTH), sicklepod (Cassia obtusifolia, CASOB), ivyleaf morningglory (Ipomoea hederacea, IPOHE), lambsquarters (Chenopodium album, CHEAL), common ragweed (Ambrosia artemisizfolia L., AMBEL), and cocklebur (Xanthium strumarium, XANST) were used as test species. Four grass weed species including green foxtail (Setaria viridis, SETVI), barnyardgrass (Echinochloa crus-galli, ECHCG), johnsongrass (Sorghum halepense, SORHA), and large crabgrass (Digitaria sanguinalis, DIGSA) were also used. In addition, three crop species, field corn (Zea mays L., var. Dekalb 535, CORN), soybean (Glycine max L., var. Pella 86, SOY), and is upland rice (Oryza sp., var. Tebonnet, RICE) were included.
All plants were grown in 10 cm square plastic pots which were filled with a sandy loam soil mix. For pre-emerge tests, seeds were planted one day prior to application of the test compounds. For post-emerge tests, seeds were planted 8-21 days prior to the test to allow emergence and good foliage development prior to application of the test substances. […]
At 14 days after application of the test materials, phytotoxicity ratings were recorded. […]

[3] = tested on: lambsquarters (Chenopodium album, CHEAL); experiment: Pre-emerge test, greenhouse herbicide activity screening; conditions: for Pre-emerge Herbicidal Activity CHEAL (phytotoxicity rating, scale 0-100): rated 14 days after application, 0 = no damage, 100 = complete death; for Pre-emerge Herbicidal Activity CHEAL (phytotoxicity rating, scale 0-100) / phytotoxicity rating CHEAL: pre-emerge; for phytotoxicity rating CHEAL: 14 days after application, rating scale 0-100
Outline: (§2)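 Applied at 15–1000 g ai/ha from acetone in 187 l/ha spray volume. Post-emergence applications included 0.25% v/v non-ionic surfactant and reached plants sown 8–21 days before. Pre-emergence applications were incorporated by surface watering. Efficacy or crop damage was rated on a 0–100 scale after 14 days.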

[4] = tested on: common ragweed (Ambrosia artemisizfolia L., AMBEL); experiment: as above; conditions: pre-emerge, rated 14 days after application, 0 = no damage, 100 = complete death
Outline: as §2

[5] = tested on: barnyardgrass (Echinochloa crus-galli, ECHCG); experiment: as above; conditions: for Pre-emerge Herbicidal Activity ECHCG (phytotoxicity rating, scale 0-100): rated 14 days after application, 0 = no damage, 100 = complete death; for Pre-emerge Herbicidal Activity ECHCG (phytotoxicity rating, scale 0-100) / phytotoxicity rating ECHCG: pre-emerge; for phytotoxicity rating ECHCG: 14 days after application, rating scale 0-100
Outline: as §2

[6] = tested on: ivyleaf morningglory (Ipomoea hederacea, IPOHE); experiment: as above; conditions: for Pre-emerge Herbicidal Activity IPOHE (phytotoxicity rating, scale 0-100): rated 14 days after application, 0 = no damage, 100 = complete death; for Pre-emerge Herbicidal Activity IPOHE (phytotoxicity rating, scale 0-100) / phytotoxicity rating IPOHE: pre-emerge; for phytotoxicity rating IPOHE: 14 days after application, rating scale 0-100
Outline: as §2

[7] = tested on: cocklebur (Xanthium strumarium, XANST); experiment: as above; conditions: 14 days after application, rating scale 0-100
[8] = tested on: field corn (Zea mays L., var. Dekalb 535, CORN); experiment: Pre-emerge test, crop safety; conditions: crop damage rating 0-100, 14 days after application
Outline: as §1

[9] = tested on: soybean (Glycine max L., var. Pella 86, SOY); experiment: Pre-emerge test, crop safety; conditions: crop damage rating 0-100, 14 days after application
Outline: as §1

[10] = tested on: upland rice (Oryza sp., var. Tebonnet, RICE); experiment: Pre-emerge test, crop safety; conditions: crop damage rating 0-100, 14 days after application
Outline: as §1

[11] = tested on: field corn (Zea mays L., var. Dekalb 535, CORN); experiment: Post-emerge test, crop safety; conditions: post-emerge, 14 days after application, rating scale 0-100
Outline: as §2

[12] = tested on: soybean (Glycine max L., var. Pella 86, SOY); experiment: Post-emerge test, crop safety; conditions: 14 days after application, rating scale 0-100
Outline: as §2

[13] = tested on: upland rice (Oryza sp., var. Tebonnet, RICE); experiment: Post-emerge test, crop safety; conditions: post-emerge, 14 days after application, rating scale 0-100
Outline: as §2

COc1c(Cl)cc(F)c(-n2c(=O)cc(C(F)(F)F)n(C)c2=O)c1N [Compound 1-4, 3-(2-amino-4-chloro-6-fluoro-3-methoxyphenyl)-1-methyl-6-trifluoromethyl-2,4(1H, 3H)-pyrimidinedione]
Pre-emerge Herbicidal Activity AMARE (phytotoxicity rating, scale 0-100) ([1]; 63 g ai/ha): 100
Pre-emerge Herbicidal Activity AMARE (phytotoxicity rating, scale 0-100) ([1]; 250 g ai/ha): 100
phytotoxicity rating AMARE ([1]; 3.9 g ai/ha): 30
phytotoxicity rating AMARE ([1]; 7.8 g ai/ha): 100
phytotoxicity rating AMARE ([1]; 15.6 g ai/ha): 90
phytotoxicity rating AMARE ([1]; 31.3 g ai/ha): 100
phytotoxicity rating AMARE ([1]; 62.5 g ai/ha): 100
phytotoxicity rating AMARE ([1]; 125 g ai/ha): 100
phytotoxicity rating AMARE ([1]; 250 g ai/ha): 100
Post-emerge Herbicidal Activity AMBEL ([2]; 63 g ai/ha): 50
Post-emerge Herbicidal Activity AMBEL ([2]; 250 g ai/ha): 90
pre-emerge herbicidal activity (weed species): high level of activity
Pre-emerge Herbicidal Activity CHEAL (phytotoxicity rating, scale 0-100) ([3]; 63 g ai/ha): 100
Pre-emerge Herbicidal Activity CHEAL (phytotoxicity rating, scale 0-100) ([3]; 250 g ai/ha): 100
phytotoxicity rating CHEAL ([3]; 3.9 g ai/ha): 30
phytotoxicity rating CHEAL ([3]; 7.8 g ai/ha): 60
phytotoxicity rating CHEAL ([3]; 15.6 g ai/ha): 100
phytotoxicity rating CHEAL ([3]; 31.3 g ai/ha): 100
phytotoxicity rating CHEAL ([3]; 62.5 g ai/ha): 100
phytotoxicity rating CHEAL ([3]; 125 g ai/ha): 100
phytotoxicity rating CHEAL ([3]; 250 g ai/ha): 100
Pre-emerge Herbicidal Activity AMBEL (phytotoxicity rating, scale 0-100) ([4]; 63 g ai/ha): 100
Pre-emerge Herbicidal Activity AMBEL (phytotoxicity rating, scale 0-100) ([4]; 250 g ai/ha): 100
Pre-emerge Herbicidal Activity ECHCG (phytotoxicity rating, scale 0-100) ([5]; 63 g ai/ha): 100
Pre-emerge Herbicidal Activity ECHCG (phytotoxicity rating, scale 0-100) ([5]; 250 g ai/ha): 100
phytotoxicity rating ECHCG ([5]; 3.9 g ai/ha): 0
phytotoxicity rating ECHCG ([5]; 7.8 g ai/ha): 0
phytotoxicity rating ECHCG ([5]; 15.6 g ai/ha): 0
phytotoxicity rating ECHCG ([5]; 31.3 g ai/ha): 10
phytotoxicity rating ECHCG ([5]; 62.5 g ai/ha): 30
phytotoxicity rating ECHCG ([5]; 125 g ai/ha): 95
phytotoxicity rating ECHCG ([5]; 250 g ai/ha): 100
Pre-emerge Herbicidal Activity IPOHE (phytotoxicity rating, scale 0-100) ([6]; 63 g ai/ha): 100
Pre-emerge Herbicidal Activity IPOHE (phytotoxicity rating, scale 0-100) ([6]; 250 g ai/ha): 100
phytotoxicity rating IPOHE ([6]; 3.9 g ai/ha): 0
phytotoxicity rating IPOHE ([6]; 7.8 g ai/ha): 0
phytotoxicity rating IPOHE ([6]; 15.6 g ai/ha): 0
phytotoxicity rating IPOHE ([6]; 31.3 g ai/ha): 50
phytotoxicity rating IPOHE ([6]; 62.5 g ai/ha): 90
phytotoxicity rating IPOHE ([6]; 125 g ai/ha): 100
phytotoxicity rating IPOHE ([6]; 250 g ai/ha): 100
phytotoxicity rating XANST ([7]; 3.9 g ai/ha): 0
phytotoxicity rating XANST ([7]; 7.8 g ai/ha): 0
phytotoxicity rating XANST ([7]; 15.6 g ai/ha): 20
phytotoxicity rating XANST ([7]; 31.3 g ai/ha): 10
phytotoxicity rating XANST ([7]; 62.5 g ai/ha): 50
phytotoxicity rating XANST ([7]; 125 g ai/ha): 50
phytotoxicity rating XANST ([7]; 250 g ai/ha): 90

COC(=O)Nc1c(OC)c(Cl)cc(F)c1-n1c(=O)cc(C(F)(F)F)n(C)c1=O [Compound 4-1, 3-(4chloro-6-fluoro-3-methoxy-2-methoxycarbonylaminophenyl)-1-methyl-6-trifluoromethyl-2,4(1H, 3H)-pyrimidinedione]
pest or weed control at 63 g/ha ([1]; Amaranthus retroflexus, pre-emergence, 336 h, 63 g ai/ha, phytotoxicity rating 0-100, 14 days after application, read-out: Pre-emerge Herbicidal Activity AMARE): 100%
pest or weed control at 250 g/ha ([1]; Amaranthus retroflexus, pre-emergence, 336 h, 250 g ai/ha, phytotoxicity rating 0-100, 14 days after application, read-out: Pre-emerge Herbicidal Activity AMARE): 100%
Pre-emerge Herbicidal Activity CORN ([8]; 63 g ai/ha): 10
Pre-emerge Herbicidal Activity CORN ([8]; 250 g ai/ha): 80
Pre-emerge Herbicidal Activity SOY ([9]; 63 g ai/ha): 70
Pre-emerge Herbicidal Activity SOY ([9]; 250 g ai/ha): 100
Pre-emerge Herbicidal Activity RICE ([10]; 63 g ai/ha): 50
Pre-emerge Herbicidal Activity RICE ([10]; 250 g ai/ha): 95
phytotoxicity rating AMBEL ([2]; 63 g ai/ha): 40
phytotoxicity rating AMBEL ([2]; 250 g ai/ha): 90
phytotoxicity rating CORN (crop damage) ([11]; 63 g ai/ha): 10
phytotoxicity rating CORN (crop damage) ([11]; 250 g ai/ha): 20
phytotoxicity rating SOY (crop damage) ([12]; 63 g ai/ha): 50
phytotoxicity rating SOY (crop damage) ([12]; 250 g ai/ha): 100
phytotoxicity rating RICE (crop damage) ([13]; 63 g ai/ha): 20
phytotoxicity rating RICE (crop damage) ([13]; 250 g ai/ha): 50
pest or weed control at 63 g/ha ([3]; Chenopodium album, pre-emergence, 336 h, 63 g ai/ha, phytotoxicity rating 0-100, 14 days after application, read-out: Pre-emerge Herbicidal Activity CHEAL): 100%
pest or weed control at 250 g/ha ([3]; Chenopodium album, pre-emergence, 336 h, 250 g ai/ha, phytotoxicity rating 0-100, 14 days after application, read-out: Pre-emerge Herbicidal Activity CHEAL): 100%
pest or weed control at 63 g/ha ([5]; Echinochloa crus-galli, pre-emergence, 336 h, 63 g ai/ha, phytotoxicity rating 0-100, 14 days after application, read-out: Pre-emerge Herbicidal Activity ECHCG): 10%
pest or weed control at 250 g/ha ([5]; Echinochloa crus-galli, pre-emergence, 336 h, 250 g ai/ha, phytotoxicity rating 0-100, 14 days after application, read-out: Pre-emerge Herbicidal Activity ECHCG): 100%
pest or weed control at 63 g/ha ([6]; Ipomoea, pre-emergence, 336 h, 63 g ai/ha, phytotoxicity rating 0-100, 14 days after application, read-out: Pre-emerge Herbicidal Activity IPOHE): 100%
pest or weed control at 250 g/ha ([6]; Ipomoea, pre-emergence, 336 h, 250 g ai/ha, phytotoxicity rating 0-100, 14 days after application, read-out: Pre-emerge Herbicidal Activity IPOHE): 100%
